Test [1] deals with T1, Adenosine receptor A1 (Rattus norvegicus, UniProt P25099).
T1 sequence (P25099 whole entry): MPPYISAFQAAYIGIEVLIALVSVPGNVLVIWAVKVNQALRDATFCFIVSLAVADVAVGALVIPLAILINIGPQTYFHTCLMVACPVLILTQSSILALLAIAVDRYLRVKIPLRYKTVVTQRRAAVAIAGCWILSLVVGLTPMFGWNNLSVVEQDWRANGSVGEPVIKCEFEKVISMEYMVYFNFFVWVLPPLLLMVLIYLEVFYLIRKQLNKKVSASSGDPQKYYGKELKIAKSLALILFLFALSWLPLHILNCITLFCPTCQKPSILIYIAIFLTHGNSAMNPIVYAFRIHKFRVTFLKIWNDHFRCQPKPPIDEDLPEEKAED
The test is described as follows: Binding affinity at Adenosine A1 receptor in rat brain cortical membrane using [3H]N6-R-phenylisopropyladenosine (R-PIA) as radioligand. In kind it is cell membranes.

For test [2], the target named is Adenosine A2 receptor (Rattus norvegicus, UniProt P29276+P30543). Description: Binding affinity against Adenosine A2 receptor in rat striatal membranes using [3H]5'-(N-ethylcarboxamido)-adenosine (NECA) as the ligand. In kind it is cell membranes, Striatum, Membrane.
Test [3] concerns the target T2, Adenosine A2 receptor (Rattus norvegicus) (UniProt P29276+P30543). Description: Binding affinity at Adenosine A2 receptor in rat striatal membrane using [3H]- 5'-N-ethylcarboxamidoadenosine (NECA) at 20 uM. It is filed as cell membranes. To be noted: Striatum.
In test [4] the target is T2, Adenosine A2 receptor (Rattus norvegicus). The test is described as follows: Binding affinity at Adenosine A2 receptor in rat striatal membrane using [3H]- 5'-N-ethylcarboxamidoadenosine (NECA) at 200 uM. It is filed as cell membranes. To be noted: Striatum.
The target is the same in test [5]. To be noted: Striatum, Membrane, at 250 µM.
Description: Binding affinity at Adenosine A2 receptor in rat striatal membrane using [3H]- 5'-N-ethylcarboxamidoadenosine (NECA) at 250 uM
Test [6] addresses T1, Adenosine receptor A1. The test is described as follows: Binding affinity at A1 adenosine receptor in rat brain cortical membrane using [3H]- N6-R-phenylisopropyladenosine (R-PIA). It is filed as cell membranes.
The target of test [7] is T3, Adenosine receptor A1 (Rattus norvegicus) (UniProt P25099).
T3 sequence (whole entry): T1 sequence (P25099 whole entry)
Description: Binding affinity at Adenosine A1 receptor in rat brain cortical membrane using [3H]- N6-R-phenylisopropyladenosine (R-PIA) at 100 uM. It is filed as cell membranes.

For test [8], the target named is T3, Adenosine receptor A1 (Rattus norvegicus). Description: Binding affinity at Adenosine A1 receptor in rat brain cortical membrane using [3H]- N6-R-phenylisopropyladenosine (R-PIA). To be noted: concentration not given here. In kind it is cell membranes.
Test [9] addresses T2, Adenosine A2 receptor (Rattus norvegicus). The test is described as follows: Binding affinity at Adenosine A2 receptor in rat striatal membrane using [3H]- 5'-N-ethylcarboxamidoadenosine (NECA) at 1 uM. It is filed as cell membranes. To be noted: Striatum.
The target in test [10] is T3, Adenosine receptor A1 (Rattus norvegicus). Description: Binding affinity at Adenosine A1 receptor in rat brain cortical membrane using [3H]- N6-R-phenylisopropyladenosine (R-PIA) at 250 uM. In kind it is cell membranes.
For test [11] the target is unchanged. Description: Binding affinity at A1 adenosine receptor in rat brain cortical membrane using [3H]- N6-R-phenylisopropyladenosine (R-PIA) at 250 uM. In kind it is cell membranes.
The target is the same in test [12]. To be noted: Brain, at 250 µM.
Test [13] concerns the target T2, Adenosine A2 receptor (Rattus norvegicus). Description: Binding affinity at Adenosine A2 receptor in rat striatal membrane using [3H]- 5'-N-ethylcarboxamidoadenosine (NECA) at 200 uM. To be noted: Striatum.
Test [14] concerns the target T3, Adenosine receptor A1 (Rattus norvegicus). The test is described as follows: Binding affinity at Adenosine A1 receptor in rat brain cortical membrane using [3H]- N6-R-phenylisopropyladenosine (R-PIA) at 200 uM.

One may read the Ki as a measure of affinity in units of concentration, obtained from inhibition or displacement. Low readings indicate higher affinity, high ones lower affinity. For orientation: inhibition means how much of the control response was suppressed. Higher therefore signals a response far below the control.

For `CCCn1c(=O)c2nc[nH]c2n(C)c1=O`, the Ki in test [1] was determined as 5.7 µM; in [2] it was 37 µM.
For the compound `O=c1[nH]c2[nH]cnc2c(=O)n1Cc1ccccc1`, the figures for the Ki in [1] and in test [2] were 2.8 µM and 22 µM, respectively.
Turning to `C=CCn1cnc2c1c(=O)[nH]c(=O)n2CC=C`, the Ki in [1] and in test [2] was 36 µM throughout.
Regarding `O=c1[nH]c2nc[nH]c2c(=O)n1CCc1ccccc1`, the inhibition constant Ki in test [1] came out at 12 µM. This lies in the double-digit micromolar range.
For `O=c1[nH]c2[nH]cnc2c(=O)n1CCc1ccccc1`, in test [3], the inhibition stood at 0%.
In [1], `CCCn1cnc2[nH]c(=O)[nH]c(=O)c21` gave a Ki of 18 µM. The inhibition in test [4] was determined as 40%.
On to `C#CCn1c(=O)[nH]c2[nH]cnc2c1=O`, for which the inhibitory constant (Ki) in test [1] came out at 20 µM; in [2], 26 µM.
For `O=c1[nH]c2[nH]cnc2c(=O)n1Cc1cccc(Cl)c1` the same measures were 4.9 µM and 26 µM.
In test [1], `Cn1c(=O)[nH]c(=O)c2[nH]c(-c3ccccc3)nc21` yielded a Ki of 3.4 µM. For the same compound, in [5], the inhibition was 17%.
`CCn1c(=O)c2nc[nH]c2n(C)c1=O` displayed a Ki in [2] of 23 µM.
Turning to `CCCCn1cnc2[nH]c(=O)[nH]c(=O)c21`, the Ki in test [1] amounted to 27 µM; in [2], 66 µM.
`CCn1c(=O)[nH]c2[nH]c(C3CCCCC3)nc2c1=O`: in test [2], the Ki worked out at 2.3 µM.
Take `CCCn1c(=O)[nH]c2[nH]c(C3CCCC3)nc2c1=O`: the inhibitory constant (Ki) in test [1] was 0.014 µM; in [2], 0.58 µM.
As to `O=c1[nH]c(=O)c2[nH]c(-c3ccccc3)nc2[nH]1`, the Ki in test [6] was 2.5 µM; in test [2], 21 µM.
Regarding `CC(C)n1c(=O)[nH]c(=O)c2[nH]cnc21`, the inhibition in test [7] stood at 34%. This compound came in with an inhibition constant (Ki) in [2] of 53 µM.
Consider `CCCn1c(=O)[nH]c2[nH]cnc2c1=O`, for which the Ki in test [1] was 13 µM; in test [2] it was 33 µM.
The corresponding values for `CCn1c(=O)[nH]c2[nH]c(-c3ccccc3)nc2c1=O` are 0.15 µM and 1.8 µM.
For `Cn1cnc2[nH]c(=O)[nH]c(=O)c21` [7-METHYLXANTHINE] the same measures were 33 µM and 59 µM.
Consider `CC(C)Cn1c(=O)n(C)c(=O)c2nc[nH]c21` [ISOBUTYLMETHYLXANTHINE], for which the inhibitory constant (Ki) in test [2] was found to be 16 µM.
Take `CC(C)n1c(=O)n(C)c(=O)c2[nH]cnc21`: the inhibition constant (Ki) in [2] amounted to 16 µM.
As to `Cn1c(=O)[nH]c2[nH]cnc2c1=O` [1-METHYLXANTHINE], the figures for the Ki in [1] and in test [2] were 36 µM and 47 µM, respectively.
With `C#CCn1c(=O)c2[nH]cnc2n(C)c1=O`, the inhibition constant (Ki) in test [1] came to 0.82 µM; in test [2], 4.8 µM.
Take `O=c1[nH]c2nc(-c3ccccc3)[nH]c2c(=O)n1CCc1ccccc1`: the Ki in [1] came to 0.19 µM.
Consider `Cn1c(=O)[nH]c(=O)c2[nH]c(-c3ccc(S(=O)(=O)O)cc3)nc21`, for which the inhibition stood at 5% in test [8] and 16% in test [5].
`CCCn1c(=O)[nH]c2[nH]c(-c3ccccc3)nc2c1=O`: in [2], the Ki came out at 1.9 µM.
Take `C#CCn1cnc2[nH]c(=O)n(C)c(=O)c21`: the Ki stood at 9.9 µM in test [1] and 14 µM in test [2].
The compound `CCCn1c(=O)[nH]c(=O)c2[nH]c(-c3ccccc3)nc21` displayed a Ki in [2] of 61 µM.
Compound `O=c1[nH]c2[nH]c(-c3ccccc3)nc2c(=O)n1Cc1cccc(Cl)c1` returned an inhibition in test [9] of 32%.
With `CCCn1c(=O)[nH]c(=O)c2[nH]c(-c3ccc(S(=O)(=O)O)cc3)nc21`, the inhibition in test [10] stood at 40%; in [5], 44%.
With `CCCn1cnc2c(=O)[nH]c(=O)[nH]c21`, the inhibition is 42% in [11] and 15% in test [5].
With `C#CCn1c(=O)[nH]c2[nH]c(-c3ccccc3)nc2c1=O`, the figures for the Ki in [1] and in test [2] were 0.21 µM and 0.73 µM, respectively.
Regarding `O=c1[nH]c2[nH]c(-c3ccccc3)nc2c(=O)n1CCc1ccccc1`, the inhibition in test [9] was determined as 0%.
Take `CC(=O)Cn1c(=O)[nH]c2[nH]c(C3CCCC3)nc2c1=O`: the inhibitory constant (Ki) in test [1] was determined as 2.5 µM; in test [2] it was 9.7 µM.
Take `CCCn1c(=O)n(C)c(=O)c2[nH]cnc21`: the inhibition constant Ki was 6.3 µM in test [1] and 19 µM in [2].
With `Cn1c(=O)[nH]c2ncn(C)c2c1=O` [PARAXANTHINE], the results for the Ki in [1] and in test [2] were 21 µM and 32 µM, respectively.
The corresponding values for `C=CCn1c(=O)c2[nH]c(-c3ccccc3)nc2n(C)c1=O` are 0.1 µM and 2.1 µM.
For `C=CCn1c(=O)[nH]c2[nH]cnc2c1=O` the same measures were 9.2 µM and 10 µM.
For `Cn1cnc2c(=O)[nH]c(=O)n(C)c21`, the inhibition in test [4] is 11%; in [12], 42%.
Consider `CN1CN(C)c2c(O)nc(O)nc21`, for which the inhibition in test [11] worked out at 5%; in test [13], 6%.
Take `CC(C)CCn1c(=O)c2nc[nH]c2n(CC(C)C)c1=O`: the Ki in test [2] amounted to 11 µM.
Same read-out and setting: in the case of `CCCCn1c(=O)[nH]c2[nH]cnc2c1=O` it was 61 µM.
For the compound `C#CCn1c(=O)[nH]c2ncn(C)c2c1=O`, the Ki in test [1] stood at 22 µM; in test [2], 16 µM.
On to `CCCn1c(=O)[nH]c2nc(-c3ccc(S(=O)(=O)O)cc3)[nH]c2c1=O`, for which the results for the Ki in test [1] and in test [2] were 2.2 µM and 24 µM, respectively.
For `CCn1c(=O)c2nc[nH]c2n(CC)c1=O` the same measures were 3.7 µM and 31 µM.
The corresponding values for `C#CCn1c(=O)[nH]c2[nH]c(C3CCCCC3)nc2c1=O` are 0.17 µM and 1.7 µM.
The corresponding values for `CCCn1c(=O)[nH]c2ncn(C)c2c1=O` are 21 µM and 29 µM.
As for `CC(C)Cn1c(=O)c2nc[nH]c2n(CC(C)C)c1=O`, the inhibition constant Ki in test [1] turned out to be 4 µM. In other words, the single-digit micromolar range.
In the case of `O=c1[nH]c2[nH]cnc2c(=O)n1C1CCCC1`, the values for the Ki in test [1] and in [2] were 11 µM and 13 µM, respectively.
`Cn1c(=O)[nH]c2[nH]c(-c3ccccc3)nc2c1=O`: the inhibition constant (Ki) in test [1] turned out to be 0.26 µM; in test [2], 2.2 µM.
In the case of `O=c1[nH]c2nc(-c3ccccc3)[nH]c2c(=O)n1Cc1cccc(Cl)c1`, the affinity in [6] corresponds to a Ki of 0.068 µM.
For the compound `C#CCn1c(=O)c2c(nc(-c3ccccc3)n2C)n(C)c1=O`, the inhibitory constant (Ki) in test [1] stood at 6.1 µM; in [2] it was 6.4 µM.
The compound `CCCn1c(=O)[nH]c(=O)c2[nH]c(C3CCCCC3)nc21` came in with an inhibition constant Ki in test [2] of 24 µM.
As to `Cn1c(=O)[nH]c2c(ncn2C)c1=O`, the inhibition in test [4] is 14%; in test [14] it was 11%.
`Cn1c(=O)[nH]c(=O)c2[nH]cnc21` [3-METHYLXANTHINE]: the inhibition in test [7] is 24%. The compound further showed a Ki in test [2] of 59 µM.

(Values after ChEMBL document CHEMBL1126876, “Synthesis of paraxanthine analogs (1,7-disubstituted xanthines) and other xanthines unsubstituted at the 3-position: structure-activity relationships at adenosine receptors” (J Med Chem, 1993).)
